Measurements as given in patent publication US7799792B2, “Metabotropic glutamate receptor oxadiazole ligands and their use as potentiators 841” (AstraZeneca AB, priority 2007, dated 2010).
≈ marks a conversion by molar mass, not a printed value.

How the values were obtained:
[1] = Aqueous solubility in pH 7.4 phosphate buffer; assay type: physicochemical; conditions: thermodynamic from solid, equilibration 24 h at 25° C., read-out: Aq. solubility
Method: Solubility was determined in pH 7.4 phosphate buffer after equilibration for 24 h at 25° C. and HPLC-UV and LC-MSMS were used for quantitation.

human mGluR2 receptor = target: T1, human mGluR2 receptor (Homo sapiens, UniProt Q14416); assay: [35S]-GTPγS binding assay of mGluR2 receptor activation (allosteric activator activity); assay type: biochemical; conditions: membranes from CHO cells stably expressing human mGluR2; 1 μM glutamate; read-out: GTPgS EC50
T1 construct: expressed in transfected cells; host or cells: CHO cells, stably transfected; membranes
Method: A [^35S]-GTPγS binding assay was used to functionally assay mGluR2 receptor activation. The allosteric activator activity of compounds at the human mGluR2 receptor were measured using a [^35S]-GTPγS binding assay with membranes prepared from CHO cells which stably express the human mGluR2. The assay is based upon the principle that agonists bind to G-protein coupled receptors to stimulate GDP-GTP exchange at the G-protein. Since [^35S]-GTPγS is a non-hydrolyzable GTP analog, it can be used to provide an index of GDP-GTP exchange and, thus, receptor activation. The GTPγS binding assay therefore provides a quantitative measure of receptor activation.
Membranes were prepared from CHO cells stably transfected with human mGluR2. Membranes (30 μg protein) were incubated with test compound (3 nM to 300 μM) for 15 minutes at room temperature prior to the addition of 1 μM glutamate, and incubated for 30 min at 30° C. in 500 μl assay buffer (20 mM HEPES, 100 mM NaCl, 10 mM MgCl2), containing 30 μM GDP and 0.1 nM [^35S]-GTPγS (1250 Ci/mmol). Reactions were carried out in triplicate in 2 ml polypropylene 96-well plates. Reactions were terminated by vacuum filtration using a Packard 96-well harvester and Unifilter-96, GF/B filter microplates. The filter plates were washed 4×1.5 ml with ice-cold wash buffer (10 mM sodium phosphate buffer, pH 7.4). The filter plates were dried and 35 μl of scintillation fluid (Microscint 20) was added to each well. The amount of radioactivity bound was determined by counting plates on the Packard TopCount. Data was analyzed using GraphPad Prism, and EC50 and Emax values (relative to the maximum glutamate effect) were calculated using non-linear regression.

T1 sequence (Q14416 19-872): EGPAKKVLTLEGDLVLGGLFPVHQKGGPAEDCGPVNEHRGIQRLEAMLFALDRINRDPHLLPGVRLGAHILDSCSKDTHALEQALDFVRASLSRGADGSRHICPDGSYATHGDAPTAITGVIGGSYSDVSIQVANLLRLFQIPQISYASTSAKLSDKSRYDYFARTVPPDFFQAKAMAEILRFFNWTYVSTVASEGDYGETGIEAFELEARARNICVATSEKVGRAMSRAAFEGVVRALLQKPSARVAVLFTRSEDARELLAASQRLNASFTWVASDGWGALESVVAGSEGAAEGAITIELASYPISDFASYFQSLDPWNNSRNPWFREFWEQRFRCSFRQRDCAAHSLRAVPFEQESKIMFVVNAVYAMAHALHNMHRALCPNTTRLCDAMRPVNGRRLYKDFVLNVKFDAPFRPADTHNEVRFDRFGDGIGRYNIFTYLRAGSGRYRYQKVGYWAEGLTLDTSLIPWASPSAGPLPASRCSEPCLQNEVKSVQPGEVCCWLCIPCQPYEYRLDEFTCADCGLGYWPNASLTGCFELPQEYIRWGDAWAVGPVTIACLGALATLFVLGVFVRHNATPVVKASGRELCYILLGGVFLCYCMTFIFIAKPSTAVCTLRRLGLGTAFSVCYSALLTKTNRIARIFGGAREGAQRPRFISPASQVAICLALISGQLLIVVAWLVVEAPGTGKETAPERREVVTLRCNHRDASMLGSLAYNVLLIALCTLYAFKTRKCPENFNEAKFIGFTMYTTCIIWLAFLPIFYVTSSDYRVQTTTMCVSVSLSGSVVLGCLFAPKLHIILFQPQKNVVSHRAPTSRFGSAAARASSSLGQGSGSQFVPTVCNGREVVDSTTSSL

solubility at 24 h [1] | EC50 (human mGluR2 receptor) | Compound
158 µM (≈ 71.4 µg/mL) | 323 nM | Cc1cc(-c2noc(CN3CCNC[C@@H]3C)n2)cc2c1C(=O)N(Cc1ccc(Cl)cc1)C2 [Example 9, 2-(4-chloro-benzyl)-7-methyl-5-[5-(2-methyl-piperazin-1-ylmethyl)-[1,2,4]oxadiazol-3-yl]-2,3-dihydroisoindol-1-one]
182 µM (≈ 91.3 µg/mL) | 307 nM | Cc1cc(-c2noc(C(C)N3CCNCC3)n2)cc2c1C(=O)N(Cc1ccc(OC(F)(F)F)cc1)C2 (stereo not shown) [Example 12, 7-Methyl-5-[5-(1-piperazin-1-yl-ethyl)-[1,2,4]oxadiazol-3-yl]-2-(4-trifluoromethoxy-benzyl)-2,3-dihydro-isoindol-1-one]
271 µM (≈ 126 µg/mL) | 210 nM | Cc1cc(-c2noc(C(C)N3CCNCC3)n2)cc2c1C(=O)N([C@@H](C)c1ccc(Cl)cc1)C2 (stereo partly drawn) [Example 14, 2-[(S)-1-(4-Chloro-phenyl)-ethyl]-7-methyl-5-[5-(1-piperazin-1-yl-ethyl)-[1,2,4]oxadiazol-3-yl]-2,3-dihydro-isoindol-1-one]
240 µM (≈ 108 µg/mL) | 283 nM | Cc1cc(-c2noc(C(C)N3CCNCC3)n2)cc2c1C(=O)N(Cc1ccc(Cl)cc1)C2 (stereo not shown) [Example 13, 2-(4-Chloro-benzyl)-7-methyl-5-[5-(1-piperazin-1-yl-ethyl)-[1,2,4]oxadiazol-3-yl]-2,3-dihydro-isoindol-1-one]
230 µM (≈ 123 µg/mL) | 147 nM | CC1(C)CN(Cc2nc(-c3cc(Cl)c4c(c3)CN(Cc3ccc(OC(F)(F)F)cc3)C4=O)no2)CCN1 [Example 11, 7-chloro-5-[5-(3,3-dimethyl-piperazin-1-ylmethyl)-[1,2,4]oxadiazol-3-yl]-2-(4-trifluoro-methoxybenzyl)-2,3-dihydroisoindol-1-one]
148 µM (≈ 66.9 µg/mL) | 121 nM | Cc1cc(-c2noc(CN3CCNC(C)C3)n2)cc2c1C(=O)N(Cc1ccc(Cl)cc1)C2 (stereo not shown) [Example 10, 2-(4-chloro-benzyl)-7-methyl-5-[5-(3-methyl-piperazin-1-ylmethyl)-[1,2,4]oxadiazol-3-yl]-2,3-dihydroisoindol-1-one]

More lines, now with the values behind:

Compound | solubility at 24 h [1] | EC50 (human mGluR2 receptor)
O=C1c2c(Cl)cc(-c3noc(CN4CCNCC4)n3)cc2CN1Cc1ccc(OC(F)(F)F)cc1 [Example 1, 7-Chloro-5-(5-piperazin-1-ylmethyl-[1,2,4]oxadiazol-3-yl)-2-(4-trifluoromethoxybenzyl)-2,3-dihydroisoindol-1-one] | 139 µM (≈ 70.6 µg/mL) | 226 nM
Cc1cc(-c2noc(CN3C[C@@H]4C[C@H]3CN4)n2)cc2c1C(=O)N([C@@H](C)c1ccc(Cl)cc1)C2 [Example 7, 2-[(S)-1-(4-Chloro-phenyl)-ethyl]-5-{5-[(1S,4S)-1-(2,5-diaza-bicyclo[2.2.1]hept-2-yl)methyl]-[1,2,4]oxadiazol-3-yl}-7-methyl-2,3-dihydro-isoindol-1-one] | 158 µM (≈ 73.3 µg/mL) | 352 nM
Cc1cc(-c2noc(CN3CCNCC3)n2)cc2c1C(=O)N(Cc1ccc(OC(F)(F)F)cc1)C2 [Example 3, 7-methyl-5-(5-piperazin-1-ylmethyl-[1,2,4]oxadiazol-3-yl)-2-(4-trifluoro-methoxybenzyl)-2,3-dihydroisoindol-1-one] | 111 µM (≈ 54.1 µg/mL) | 147 nM
Cc1cc(-c2noc(CN3CCNCC3)n2)cc2c1C(=O)N([C@@H](C)c1ccc(Cl)cc1)C2 [Example 6, 2-[(S)-1-(4-Chloro-phenyl)-ethyl]-7-methyl-5-(5-piperazin-1-ylmethyl-[1,2,4]oxadiazol-3-yl)-2,3-dihydro-isoindol-1-one] | 96 µM (≈ 43.4 µg/mL) | 47.8 nM
Cc1cc(-c2noc(CN3CCNC[C@H]3C)n2)cc2c1C(=O)N(Cc1ccc(Cl)cc1)C2 [Example 8, 2-(4-chloro-benzyl)-7-methyl-5-[5-(2-methyl-piperazin-1-ylmethyl)-[1,2,4]oxadiazol-3-yl]-2,3-dihydroisoindol-1-one] | 228 µM (≈ 103 µg/mL) | 202 nM
O=C1c2c(Cl)cc(-c3noc(CN4CCNCC4)n3)cc2CN1Cc1ccc(Cl)cc1 [Example 2, 7-chloro-2-(4-chlorobenzyl)-5-(5-piperazin-1-ylmethyl-[1,2,4]oxadiazol-3-yl)-2,3-dihydroisoindol-1-one] | 176 µM (≈ 80.7 µg/mL) | 431 nM
Cc1cc(-c2noc(CN3C[C@@H]4C[C@H]3CN4)n2)cc2c1C(=O)N(Cc1ccc(OC(F)(F)F)cc1)C2 [Example 5, 5-[5-(2,5-diaza-bicyclo[2.2.1]hept-2-ylmethyl)-[1,2,4]oxadiazol-3-yl]-7-methyl-2-(4-trifluoromethoxybenzyl)-2,3-dihydroisoindol-1-one] | 141 µM (≈ 70.4 µg/mL) | 75 nM
Cc1cc(-c2noc(CN3CCNCC3)n2)cc2c1C(=O)N(Cc1ccc(Cl)cc1)C2 [Example 4, 2-(4-chlorobenzyl)-7-methyl-5-(5-piperazin-1-ylmethyl-[1,2,4]oxadiazol-3-yl)-2,3-dihydroisoindol-1-one] | 166 µM (≈ 72.7 µg/mL) | 317 nM
